From US6479531B1, “Gastrin and cholecystokinin receptor ligands” (James Black Foundation Limited, priority 1998, dated 2002) come the findings set out here.

The target in one test is T1, CCKB receptor (Mus musculus, UniProt P56481).
T1 construct: The whole brains from male mice (CD1 22-25 g; Charles River) were removed; from tissue; host or cells: cerebral cortex membranes of male CD1 mice
T1 sequence (P56481 1-453): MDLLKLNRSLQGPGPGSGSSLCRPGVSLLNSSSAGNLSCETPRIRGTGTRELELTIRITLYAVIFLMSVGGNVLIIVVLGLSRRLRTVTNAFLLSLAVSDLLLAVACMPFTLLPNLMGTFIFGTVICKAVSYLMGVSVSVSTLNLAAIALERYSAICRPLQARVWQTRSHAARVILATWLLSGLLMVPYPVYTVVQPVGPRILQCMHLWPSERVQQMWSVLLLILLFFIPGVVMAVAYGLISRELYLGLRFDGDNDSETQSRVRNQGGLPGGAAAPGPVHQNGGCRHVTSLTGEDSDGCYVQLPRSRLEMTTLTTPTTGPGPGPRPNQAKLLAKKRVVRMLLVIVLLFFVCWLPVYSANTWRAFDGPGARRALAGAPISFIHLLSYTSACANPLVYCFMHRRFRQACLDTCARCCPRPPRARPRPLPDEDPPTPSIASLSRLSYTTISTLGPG
Put plainly: CCKB receptor radioligand binding assay in mouse cortical membranes. Particulars: [125I]-CCK8(S) 200 pM, 150 min at 21±3°, read-out: CCKB pKi (converted). A digest of the protocol:
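Bound radioactivity was gamma-counted after rapid GF/B filtration and cold 50 mM Tris-HCl (pH 7.4) washes. The tissue was cerebral cortex from male CD1 mice, prepared as twice-centrifuged membranes in pH 7.2 HEPES/NaCl/KCl/MgCl2/EDTA buffer with bacitracin at 20 mg/ml original wet weight.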

Another test addresses T2, gastrin receptor (Rattus norvegicus, UniProt P30553).
T2 construct: The stomach was excised and flushed with ca. 1 ml of unbuffered physiological saline solution; from tissue; host or cells: isolated whole stomach of immature rats (ca. 21 days old)
T2 sequence (P30553 1-452): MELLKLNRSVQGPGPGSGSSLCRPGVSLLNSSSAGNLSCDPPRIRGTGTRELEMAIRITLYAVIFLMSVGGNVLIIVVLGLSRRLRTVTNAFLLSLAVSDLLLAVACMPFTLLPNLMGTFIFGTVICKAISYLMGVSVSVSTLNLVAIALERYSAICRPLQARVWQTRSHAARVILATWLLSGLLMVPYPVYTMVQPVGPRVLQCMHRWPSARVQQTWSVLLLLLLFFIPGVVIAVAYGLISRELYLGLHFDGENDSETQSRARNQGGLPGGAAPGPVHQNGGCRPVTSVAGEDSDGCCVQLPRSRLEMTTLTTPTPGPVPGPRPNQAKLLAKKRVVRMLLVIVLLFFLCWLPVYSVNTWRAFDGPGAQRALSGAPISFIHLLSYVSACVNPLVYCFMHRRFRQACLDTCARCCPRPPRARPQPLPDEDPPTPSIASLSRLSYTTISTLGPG
Put plainly: gastrin antagonist activity in immature rat stomach assay (pentagastrin dose-response, acid secretion). Particulars: isolated immature rat stomach, cumulative pentagastrin dose-response curves, read-out: Gastrin pKb (converted). A digest of the protocol: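 Gastrin antagonism was measured as the effect on cumulative pentagastrin dose-response curves of acid output, recorded by pH electrode in the perfusate of an excised immature rat stomach (ca. 21 days old). Test compound was placed in the serosal bath (37°, 3×10^−8 M 5-methylfurmethide) 60 min before pentagastrin.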

`O=C(O)c1cc(NC(=O)c2[nH]c(-c3ccccc3)nc2CC2CCCCCC2)cc(C(=O)O)c1` [Example 24, 5-[(5-Cycloheptylmethyl-2-phenyl-1H-imidazole-4-carbonyl)-amino]-isophthalic Acid]: on CCKB receptor, the Ki is 1 µM. Moreover, the Kb at gastrin receptor was 0.479 µM.
As for `O=C(O)c1cc(NC(=O)c2nc(C3CCCCC3)[nH]c2CCC23CC4CC(CC(C4)C2)C3)ccc1F` [Example 254, 5-{[5-(2-Adamantan-1-yl-ethyl)-2-cyclohexyl-1H-imidazole-4-carbonyl]-amino}-2-fluoro-benzoic Acid], the Ki at CCKB receptor was 0.0126 µM. The Kb at gastrin receptor is 0.0117 µM.
On to `O=C(O)c1cccc(NC(=O)c2nc(-c3ccc(Cl)cc3Cl)[nH]c2CCC23CC4CC(CC(C4)C2)C3)c1` [Example 146, 3-{[5-(2-Adamantan-1-yl-ethyl)-2-(2,4-dichlorophenyl)-1H-imidazole-4-carbonyl]-amino}-benzoic Acid], for which the Ki at CCKB receptor is 0.151 µM. Also, at gastrin receptor, the Kb is 0.0513 µM.
For `O=C(O)c1cccc(NC(=O)c2nc(-c3cccnc3)[nH]c2CCC23CC4CC(CC(C4)C2)C3)c1` [Example 177, 3-{[5-(2-Adamantan-1-yl-ethyl)-2-pyridine-3-yl-1H-imidazole-4-carbonyl]-amino}-benzoic Acid], in that order: 0.603 µM and 0.151 µM.
For the compound `Cc1ccc(NC(=O)c2nc(C(C)(C)C)[nH]c2CCC23CC4CC(CC(C4)C2)C3)cc1C(=O)O` [Example 198, 5-{[5-(2-Adamantan-1-yl-ethyl)-2-tert-butyl-1H-imidazole-4-carbonyl]-amino}-2-methyl-benzoic Acid], the Ki on CCKB receptor was 0.00871 µM. For the same compound, the Kb at gastrin receptor was 0.00813 µM.
Regarding `O=C(O)c1cccc(NC(=O)c2nc(-c3ccccc3F)[nH]c2CCC2CCCCCC2)c1` [Example 43, 3-{[5-(2-Cycloheptyl-ethyl)-2-(2-fluoro-phenyl)-1H-imidazole-4-carbonyl]-amino}-benzoic Acid], on CCKB receptor, the Ki was 0.851 µM. For the same compound, the Kb at gastrin receptor is 0.0631 µM.
The matching figures for `O=C(O)c1cccc(NC(=O)c2nc(C3CC4CCC3C4)[nH]c2CCC23CC4CC(CC(C4)C2)C3)c1` (racemic) [Example 115, (±)-exo-3-{[5-(2-Adamantan-1-yl-ethyl)-2-bicyclo[2.2.1]hept-2-yl-1H-imidazole-4-carbonyl]-amino}-benzoic Acid]: 0.0257 µM and 0.00631 µM.
Turning to `CCC(CC)c1nc(C(=O)Nc2cccc(C(=O)O)c2)c(CCC23CC4CC(CC(C4)C2)C3)[nH]1` [Example 112, 3-{[5-(2-Adamantan-1-yl-ethyl)-2-(1-ethyl-propyl)-1H-imidazole-4-carbonyl]-amino}-benzoic Acid], the Ki at CCKB receptor was 0.0457 µM. Also, on gastrin receptor, the Kb was 0.00933 µM.
For the compound `Cc1ccc(NC(=O)c2nc(-c3c(C)cccc3C)[nH]c2CCC23CC4CC(CC(C4)C2)C3)cc1C(=O)O` [Example 153, 5-{[5-(2-Adamantan-1-yl-ethyl)-2-(2,6-dimethyl-phenyl)-1H-imidazole-4-carbonyl]-amino}-2-methyl-benzoic Acid], the Ki at CCKB receptor was 0.0049 µM. For the same compound, the Kb at gastrin receptor was 0.0575 µM.
For `CC(C)(C)c1nc(C(=O)Nc2cccc(C(=O)O)c2)c(CCC23CC4CC(CC(C4)C2)C3)[nH]1` [Example 80, 3-{[5-(2-Adamantan-1-yl-ethyl)-2-tert-butyl-1H-imidazole-4-carbonyl]-amino}-benzoic Acid], the Ki at CCKB receptor is 0.0676 µM. For the same compound, the Kb at gastrin receptor was 0.011 µM.
Consider `COc1cccc(-c2nc(C(=O)Nc3cccc(C(=O)O)c3)c(CCC3CCCCCC3)[nH]2)c1` [Example 42, 3-{[5-(2-Cycloheptyl-ethyl)-2-(3-methoxy-phenyl)-1H-imidazole-4-carbonyl]-amino}-benzoic Acid], for which the Ki at CCKB receptor is 1.51 µM. Also, on gastrin receptor, the Kb was 0.0501 µM.
As for `O=C(O)c1cc(NC(=O)c2cc(-c3ccc4ccccc4c3)[nH]c2CC23CC4CC(CC(C4)C2)C3)cc(C(=O)O)c1` [Example 4, 5-[(2-Adamantan-1-ylmethyl-5-naphthalen-2-yl-1H-pyrrole-3-carbonyl)-amino]-isophthalic Acid], the Ki on CCKB receptor was 0.0871 µM. Besides, the Kb on gastrin receptor was 1.62 µM.
